Test results from the OPERA property sets (Mansouri et al. 2018).

conditions: not given

| SMILES | melting point [°C] | boiling point [°C] | log10 Koa | log10 vapour pressure (mmHg) | ready biodegradability | log10 Henry constant (atm·m³/mol) | log10 biodegradation half-life (days) | log10 Koc (L/kg) |
| --- | --- | --- | --- | --- | --- | --- | --- | --- |
| C#C[C@]1(O)CC[C@H]2[C@@H]3CCC4=CC(=O)CC[C@@H]4[C@H]3CC[C@@]21C | 204 | – | – | – | – | – | – | – |
| CC1=CCC2C(C)(C)CCC[C@]2(C)[C@@]12CC[C@](C)(CC(=O)O)O2 (some centres not stated) | 100 | – | – | – | – | – | – | – |
| CCCCCC#N | -80.3 | 164 | 4.08 | 0.455 | – | – | – | – |
| CC(CO)(CO)[N+](=O)[O-] | 150 | – | – | – | – | – | – | – |
| COC1=C[C@H](C)[C@H]2C[C@H]3OC(O)C[C@H]4C(C)=C(OC)C(=O)C([C@@]34C)[C@@]2(C)C1=O (some centres not stated) | 227 | – | – | – | – | – | – | – |
| N#Cc1ccncc1C#N | 80 | – | – | – | – | – | – | – |
| BrCI | – | 140 | – | – | – | – | – | – |
| Cc1c(C)c(C)c(C)c(C)c1C | 166 | 263 | 6.31 | -3.07 | – | – | – | – |
| O[C@@H]1CO[C@H]2[C@@H]1OC[C@@H]2O | 75.2 | – | – | – | – | – | – | – |
| CCCCCCC(C)(C)C | – | 155 | – | – | – | – | – | – |
| CN(C)C(=O)Cl | -33 | 167 | – | 0.29 | – | – | – | – |
| CCCCCCCCCCCCCCCCCCCCCCCCCCCCCCCCCCCC | 76.5 | – | – | – | readily biodegradable | – | – | – |
| C=CC(C)(C)CCC | – | 104 | – | – | – | – | – | – |
| c1ccc2c(c1)ccc1c3ccccc3ccc21 | 258 | 448 | – | -8.21 | – | -5.28 | 2.58 | – |
| O=C(O)Cn1c(=O)sc2cccc(Cl)c21 | 193 | – | – | -9.12 | – | – | – | 1.52 |
| Cc1ccc2ccc3ccc(C)cc3c2c1 | 145 | – | – | – | – | – | – | – |
| Cc1n[nH]c(=S)[nH]c1=O | 218 | – | – | – | – | – | – | – |
| CC/C=C\C/C=C\C/C=C\CCCCCCCC(=O)OC | – | – | – | -5.29 | – | – | – | – |
| CCCCC(CC)C(=O)O (configuration not stated) | – | 228 | – | -1.52 | – | – | – | – |
| O=C1Cc2cccc3cccc1c23 | 121 | – | – | – | – | – | – | – |
| CCOC(=O)c1nc(C(Cl)(Cl)Cl)n(-c2ccc(Cl)cc2Cl)n1 | 110 | – | – | -8.18 | – | – | – | – |
| c1cc[nH]c1 | -23.4 | 130 | – | 0.922 | readily biodegradable | -4.74 | – | – |
| O[C@H]1[C@H]2c3cc4c(cc3CN3CCC(=C[C@@H]1O)[C@H]23)OCO4 | 280 | – | – | – | – | – | – | – |
| CCCCCCCCCCCCCC(C)=O | 39.5 | 294 | – | – | – | – | – | – |

| SMILES | melting point [°C] | boiling point [°C] | log10 Koa | log10 vapour pressure (mmHg) | ready biodegradability | log10 Henry constant (atm·m³/mol) | log10 biodegradation half-life (days) | log10 Koc (L/kg) |
| --- | --- | --- | --- | --- | --- | --- | --- | --- |
| Cc1cc(C)c(N)c(Cl)c1 | – | – | – | – | not readily biodegradable | – | – | – |
| CNC(=O)Oc1ccccc1C(C)C | 94 | – | – | -4.68 | not readily biodegradable | – | – | – |
| O=C(O)CCCCBr | 39 | – | – | – | – | – | – | – |
| Clc1cccs1 | -71.9 | 128 | – | 1.38 | – | – | – | – |
| CC(CO)CO | -91 | 195 | – | -1.68 | – | – | – | – |
| CC(F)(F)CCl | -56.2 | 55 | – | – | – | – | – | – |
| Cc1cc(C)on1 | – | 143 | – | – | – | – | – | – |
| N#CCCNc1ccccc1 | 52.5 | – | – | – | – | – | – | – |
| c1ccc(CSc2ccccc2)cc1 | 43.5 | – | – | – | – | – | – | – |
| CCN(C(C)=O)C(C)=O | – | 197 | – | – | – | – | – | – |
| COc1ccccc1N=Nc1c(O)ccc2ccccc12 | 183 | – | – | – | – | – | – | – |
| CCN(CC)CCOC(=O)c1ccc(N)cc1 | 61 | – | – | – | – | – | – | – |
| CN(c1c(Br)cc(Br)cc1Br)c1c([N+](=O)[O-])cc([N+](=O)[O-])cc1C(F)(F)F | 150 | – | – | -7.01 | – | – | – | – |
| O=C1NCCN1c1ncc([N+](=O)[O-])s1 | 261 | – | – | – | – | – | – | – |
| C[Si]1(C)O[Si](C)(C)O[Si](C)(C)O[Si](C)(C)O[Si](C)(C)O[Si](C)(C)O[Si](C)(C)O[Si](C)(C)O[Si](C)(C)O1 | – | – | – | -4.75 | – | – | – | – |
| OC(c1ccc(Cl)cc1)c1cc2ccccc2o1 (configuration not stated) | 48.5 | – | – | – | – | – | – | – |
| O=Cc1ccc2ccccc2c1 | 62 | – | – | – | – | – | – | – |
| CCOC(=O)C(F)F | – | 100 | – | – | – | – | – | – |
| CCOc1ccc(NC(=O)CN)cc1 | 100 | – | – | – | – | – | – | – |
| CN(C)c1ccc(Cl)cc1 | 35.5 | 231 | – | – | – | – | – | – |
| Cc1cccc(N)c1 | -31.2 | 203 | – | -0.519 | not readily biodegradable | -5.78 | – | 1.53 |
| COC(=O)c1ccccc1O | -8 | 223 | – | -1.46 | – | – | – | – |
| Cc1ncsc1C | 83.5 | 158 | – | – | – | – | – | – |
| Nc1ccc(Nc2ccccc2)cc1 | 66 | 354 | – | -4.92 | – | – | – | – |

same assay, conditions: fish

| SMILES | log10 biotransformation half-life (days) | log10 BCF |
| --- | --- | --- |
| c1ccc2c(c1)ccc1c3ccccc3ccc21 | 0.59 | – |
| CNC(=O)Oc1ccccc1C(C)C | -1.25 | 0.95 |
